Measured values from US7235379B2, “Method and medium for the detection/identification of microorgranisms with esterase activity” (Bio Merieux, priority 2000, dated 2007).
Values joined by “and” are separate entries in the source; they are usually repeats but may differ in a detail not shown here. Identical values can stand only once. Counter-ions that a name gives are not always drawn. Like-named read-outs stand apart in the source and are kept apart here.

Columns and labels:
[1] = system: Salmonella spp. 017
Protocol: (§1) The esterase substrate tested is 5-bromo-4-chloro-3-indolyl nonanoate. A 40 g/l stock solution of substrate is prepared in a mixture of 40% dimethyl sulfoxide and 60% Tween 20. A sufficient volume is added to a supercooled MacConkey medium (without neutral red) to give a substrate concentration of 250 mg/l.
(§2) Microorganisms originating from the Applicant's collection were inoculated onto this medium from a 0.5 McFarland suspension by isolation in three quadrants. The dishes were incubated at 37° C. for 48 hours. The colonies formed were examined visually after 24 and 48 hours of incubation. The coloration of these colonies and the intensity of this coloration were noted.
(§3) Note: In the above Examples, the numbers following the strains correspond to the number of each strain referenced in the Applicant's collection. The intensity of coloration corresponds to an arbitrary scale defined as follows: […]

[2] = system: Salmonella paratyphi A 006
Protocol: as §1, §2, §3

[3] = system: Acinetobacter calcoaceticus 034; experiment: Ex.1 colony coloration, 5-bromo-3-indolyl nonanoate, DMSO/Tween 20, MacConkey; format: cell-based; for intensity of coloration: key: 0: no activity; 0.1: trace of coloration; 0.5: very pale coloration; 1: distinct coloration of low intensity; 2: clear coloration of medium intensity; 3: intense coloration; 4: very intense coloration
Protocol: (§4) The esterase substrate tested is 5-bromo-3-indolyl nonanoate. A 40 g/l stock solution of substrate is prepared in a mixture of 40% dimethyl sulfoxide and 60% Tween 20. A sufficient volume is added to a supercooled MacConkey medium (without neutral red) to give a substrate concentration of 500 mg/l.

[4] = system: Pseudomonas aeruginosa 165; experiment: as above; format: cell-based
Protocol: as §4

[5] = system: Salmonella typhimurium 010; experiment: as above; format: cell-based
Protocol: as §4

[6] = system: Escherichia coli 002; experiment: Ex.4 colony coloration, 5-bromo-3-indolyl nonanoate, DMSO/Tween 20, MacConkey; format: cell-based; design: key: —: absence of colour or intensity; details: 8 ml/l Tergitol 4
[7] = system: Staphylococcus epidermidis 009; experiment: Ex.3 colony coloration, 5-bromo-4-chloro-3-indolyl nonanoate 250 mg/l, DMSO/Tween 20; format: cell-based; note: key: 0: no activity; 0.1: trace of coloration; 0.5: very pale coloration; 1: distinct coloration of low intensity; 2: clear coloration of medium intensity; 3: intense coloration; 4: very intense coloration
[8] = system: bacterial strains exhibiting an esterase activity; details: between 2 and 16 ml/l, more precisely between 4 and 8 ml/l
Protocol: The esterase substrate tested is 5-bromo-3-indolyl nonanoate. A 25 g/l stock solution of substrate is prepared in methanol to which 5 g/l of bile salts have been added. A sufficient volume is added to a supercooled MacConkey medium (without neutral red) to give a substrate concentration of 500 mg/l.
as §2

[9] = system: Candida tropicalis 030; experiment: Ex.3 colony coloration, 5-bromo-4-chloro-3-indolyl nonanoate 250 mg/l, DMSO/Tween 20; format: cell-based; note: key: 0: no activity; 0.1: trace of coloration; 0.5: very pale coloration; 1: distinct coloration of low intensity; 2: clear coloration of medium intensity; 3: intense coloration; 4: very intense coloration
[10] = system: Salmonella typhi 118; format: cell-based; for intensity of coloration: key: 0: no activity; 0.1: trace of coloration; 0.5: very pale coloration; 1: distinct coloration of low intensity; 2: clear coloration of medium intensity; 3: intense coloration; 4: very intense coloration
[11] = system: Acinetobacter calcoaceticus 034; experiment: Ex.2 colony coloration, 5-bromo-3-indolyl nonanoate, methanol/bile salts, MacConkey; format: cell-based
[12] = system: Enterobacter cloacae 086; experiment: Ex.1 colony coloration, 5-bromo-3-indolyl nonanoate, DMSO/Tween 20, MacConkey; format: cell-based
Protocol: as §4

`CCCCC(CC)CCC(CC(C)C)OS(=O)(=O)O` (centres unmarked) [Tergitol 4, 7-ethyl-2-methyl-4-undecanoate hydrogensulfate or its sodium salt] showed an intensity of coloration ([1]; 0.001 ml/l, 24 h) of 2, an intensity of coloration ([1]; 0.001 ml/l, 48 h) of 3 and an intensity of coloration ([1]; 0.01 ml/l, 24 h) of 2. For the same compound, the intensity of coloration ([1]; 0.01 ml/l, 48 h) was 3, the intensity of coloration ([1]; 0.1 ml/l, 24 h) was 2 and the intensity of coloration ([1]; 0.1 ml/l, 48 h) was 3. It also gave an intensity of coloration ([1]; 1 ml/l (1st col), 24 h) of 2, an intensity of coloration ([1]; 1 ml/l (1st col), 48 h) of 3 and an intensity of coloration ([1]; 1 ml/l (2nd col), 24 h) of 2. It also gave an intensity of coloration ([1]; 1 ml/l (2nd col), 48 h) of 3, an intensity of coloration ([2]; 0.001 ml/l, 24 h) of 0.1 and an intensity of coloration ([2]; 0.001 ml/l, 48 h) of 0.5. For the same compound, the intensity of coloration ([2]; 0.01 ml/l, 24 h) was 0.1, the intensity of coloration ([2]; 0.01 ml/l, 48 h) was 1 and the intensity of coloration ([2]; 0.1 ml/l, 24 h) was 0.1. It also gave an intensity of coloration ([2]; 0.1 ml/l, 48 h) of 0.5, an intensity of coloration ([2]; 1 ml/l (1st col), 24 h) of 0.5 and an intensity of coloration ([2]; 1 ml/l (1st col), 48 h) of 2. For the same compound, the intensity of coloration ([2]; 1 ml/l (2nd col), 24 h) was 0.5, the intensity of coloration ([2]; 1 ml/l (2nd col), 48 h) was 2 and the color ([3]; 2 ml/l, 24 h) was “gray”. For the same compound, the intensity of coloration ([3]; 2 ml/l, 24 h) was 2, the color ([3]; 2 ml/l, 48 h) was “gray” and the intensity of coloration ([3]; 2 ml/l, 48 h) was 3. The color ([3]; 4 ml/l, 24 h) was “gray”, the intensity of coloration ([3]; 4 ml/l, 24 h) was 3 and the color ([3]; 4 ml/l, 48 h) was “gray”. The intensity of coloration ([3]; 4 ml/l, 48 h) was 3, the color ([3]; 8 ml/l, 24 h) was “gray” and the intensity of coloration ([3]; 8 ml/l, 24 h) was 3. The color ([3]; 8 ml/l, 48 h) was “gray”, the intensity of coloration ([3]; 8 ml/l, 48 h) was 4 and the color ([3]; 16 ml/l, 24 h) was “gray”. For the same compound, the intensity of coloration ([3]; 16 ml/l, 24 h) was 0.5, the color ([3]; 16 ml/l, 48 h) was “gray” and the intensity of coloration ([3]; 16 ml/l, 48 h) was 0.5. The color ([4]; 2 ml/l, 24 h) was “gray”, the intensity of coloration ([4]; 2 ml/l, 24 h) was 3.5 and the color ([4]; 2 ml/l, 48 h) was “gray”. For the same compound, the intensity of coloration ([4]; 2 ml/l, 48 h) was 3.5, the color ([4]; 4 ml/l, 24 h) was “gray” and the intensity of coloration ([4]; 4 ml/l, 24 h) was 4. The color ([4]; 4 ml/l, 48 h) was “gray”, the intensity of coloration ([4]; 4 ml/l, 48 h) was 4 and the color ([4]; 8 ml/l, 24 h) was “gray”. For the same compound, the intensity of coloration ([4]; 8 ml/l, 24 h) was 4, the color ([4]; 8 ml/l, 48 h) was “gray” and the intensity of coloration ([4]; 8 ml/l, 48 h) was 4. For the same compound, the color ([4]; 16 ml/l, 24 h) was “gray”, the intensity of coloration ([4]; 16 ml/l, 24 h) was 4 and the color ([4]; 16 ml/l, 48 h) was “gray”. For the same compound, the intensity of coloration ([4]; 16 ml/l, 48 h) was 4, the color ([5]; 2 ml/l, 24 h) was “gray” and the intensity of coloration ([5]; 2 ml/l, 24 h) was 2. The color ([5]; 2 ml/l, 48 h) was “gray”, the intensity of coloration ([5]; 2 ml/l, 48 h) was 2.5 and the color ([5]; 4 ml/l, 24 h) was “gray”. The intensity of coloration ([5]; 4 ml/l, 24 h) was 3, the color ([5]; 4 ml/l, 48 h) was “gray” and the intensity of coloration ([5]; 4 ml/l, 48 h) was 3. For the same compound, the color ([5]; 8 ml/l, 24 h) was “gray”, the intensity of coloration ([5]; 8 ml/l, 24 h) was 3.5 and the color ([5]; 8 ml/l, 48 h) was “gray”. For the same compound, the intensity of coloration ([5]; 8 ml/l, 48 h) was 3.5, the color ([5]; 16 ml/l, 24 h) was “gray” and the intensity of coloration ([5]; 16 ml/l, 24 h) was 3.5. For the same compound, the color ([5]; 16 ml/l, 48 h) was “gray”, the intensity of coloration ([5]; 16 ml/l, 48 h) was 4 and the color ([6]; 24 h) was “—”. For the same compound, the color ([6]; 48 h) was “—”, the intensity of coloration ([7]; 0.001 ml/l, 24 h) was 2 and the intensity of coloration ([7]; 0.001 ml/l, 48 h) was 2. It also gave an intensity of coloration ([7]; 0.01 ml/l, 24 h) of 3, an intensity of coloration ([7]; 0.01 ml/l, 48 h) of 3 and an intensity of coloration ([7]; 0.1 ml/l, 24 h) of 2. For the same compound, the intensity of coloration ([7]; 0.1 ml/l, 48 h) was 3, the intensity of coloration ([7]; 1 ml/l (1st col), 24 h) was 2 and the intensity of coloration ([7]; 1 ml/l (1st col), 48 h) was 2. For the same compound, the intensity of coloration ([7]; 1 ml/l (2nd col), 24 h) was 0.5, the intensity of coloration ([7]; 1 ml/l (2nd col), 48 h) was 3 and the “effect on intensity of coloration” value [8] was “significantly increases the intensity of coloration”. For the same compound, the intensity of coloration ([9]; 0.001 ml/l, 24 h) was 2, the intensity of coloration ([9]; 0.001 ml/l, 48 h) was 3 and the intensity of coloration ([9]; 0.01 ml/l, 24 h) was 2. The intensity of coloration ([9]; 0.01 ml/l, 48 h) was 3, the intensity of coloration ([9]; 0.1 ml/l, 24 h) was 2 and the intensity of coloration ([9]; 0.1 ml/l, 48 h) was 3. It also gave an intensity of coloration ([9]; 1 ml/l (1st col), 24 h) of 0.5, an intensity of coloration ([9]; 1 ml/l (1st col), 48 h) of 3 and an intensity of coloration ([9]; 1 ml/l (2nd col), 24 h) of 0.5. For the same compound, the intensity of coloration ([9]; 1 ml/l (2nd col), 48 h) was 3, the color [10] was “gray” and the intensity of coloration ([10]; sodium salt) was 3 and 3.5. For the same compound, the color ([11]; 2 ml/l, 24 h) was “gray”, the intensity of coloration ([11]; 2 ml/l, 24 h) was 2 and the color ([11]; 2 ml/l, 48 h) was “gray”. For the same compound, the intensity of coloration ([11]; 2 ml/l, 48 h) was 3, the color ([11]; 4 ml/l, 24 h) was “gray” and the intensity of coloration ([11]; 4 ml/l, 24 h) was 3. For the same compound, the color ([11]; 4 ml/l, 48 h) was “gray”, the intensity of coloration ([11]; 4 ml/l, 48 h) was 3 and the color ([11]; 8 ml/l, 24 h) was “gray”. The intensity of coloration ([11]; 8 ml/l, 24 h) was 3, the color ([11]; 8 ml/l, 48 h) was “gray” and the intensity of coloration ([11]; 8 ml/l, 48 h) was 4. The color ([11]; 16 ml/l, 24 h) was “gray”, the intensity of coloration ([11]; 16 ml/l, 24 h) was 0.5 and the color ([11]; 16 ml/l, 48 h) was “gray”. The intensity of coloration ([11]; 16 ml/l, 48 h) was 0.5, the color ([12]; 2 ml/l, 24 h) was “gray” and the intensity of coloration ([12]; 2 ml/l, 24 h) was 0.5. The color ([12]; 2 ml/l, 48 h) was “gray”, the intensity of coloration ([12]; 2 ml/l, 48 h) was 2 and the color ([12]; 4 ml/l, 24 h) was “gray”. For the same compound, the intensity of coloration ([12]; 4 ml/l, 24 h) was 1, the color ([12]; 4 ml/l, 48 h) was “gray” and the intensity of coloration ([12]; 4 ml/l, 48 h) was 3. For the same compound, the color ([12]; 8 ml/l, 24 h) was “gray”, the intensity of coloration ([12]; 8 ml/l, 24 h) was 0.5 and the color ([12]; 8 ml/l, 48 h) was “gray”. The intensity of coloration ([12]; 8 ml/l, 48 h) was 1, the color ([12]; 16 ml/l, 24 h) was “gray” and the intensity of coloration ([12]; 16 ml/l, 24 h) was 0.5. For the same compound, the color ([12]; 16 ml/l, 48 h) was “gray” and the intensity of coloration ([12]; 16 ml/l, 48 h) was 1.
